The results in this text go back to patent publication US20240409557A1, “5,6-FUSED AND 6,6-FUSED BICYCLIC ALCOHOLS AND ETHERS AND COMPOSITIONS FOR USE AS 15-PROSTAGLANDIN DEHYDROGENASE MODULATORS” (AMGEN INC., priority 2023, published 2024).

Molecules are shown by their SMILES. Where only a bound is given, the exact number is not on record here.

For the assay, the target named is T1, human recombinant 15-PGDH (Homo sapiens, UniProt P15428).
T1 sequence (P15428 1-266): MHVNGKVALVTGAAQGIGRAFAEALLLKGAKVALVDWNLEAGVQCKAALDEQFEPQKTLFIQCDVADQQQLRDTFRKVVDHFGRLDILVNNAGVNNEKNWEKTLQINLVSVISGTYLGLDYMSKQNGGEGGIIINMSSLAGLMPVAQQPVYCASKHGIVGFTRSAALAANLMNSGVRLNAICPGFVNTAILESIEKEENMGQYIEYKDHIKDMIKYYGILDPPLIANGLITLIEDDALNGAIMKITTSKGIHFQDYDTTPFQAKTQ
The assay can be described thus: Recombinant 15-PGDH enzymatic inhibition assay (PGDH-Lumi, NADH signal). Type of assay: biochemical. Particulars: recombinant 15-PGDH; 15 min pre-incubation, 60 min reaction with PGE2 and NAD+, NADH signal. The protocol: These assays measured 15-PGDH enzymatic activity by quantifying the amount of NADH produced during a 60-minute reaction initiated by the addition of PGE2 and NAD+. Under the conditions of these experiments, the increase of NADH signal upon oxidation of PGE2 and reduction of NAD+ was linearly proportional to 15-PGDH enzymatic activity. The recombinant human, mouse, rat and dog 15-PGDH enzymatic assays were performed in a 25 μL volume of reaction buffer containing 50 mM Tris, pH 7.5, 0.01% Tween-20 and […] DTT in a 384-well microtiter plate. In concentration-response experiments with tested compounds, 22 concentrations from 2-fold serial dilutions in DMSO were pre-incubated with 15-PGDH for 15 minutes at room temperature. Then, PGE2 and β-NAD+ were added to initiate the 15-PGDH reaction. After 60 minutes at room temperature, the reaction was quenched and NADH signal was measured using a microtiter plate reader.
The following data (Table 27-1) provides the IC50 in μM of each compound for inhibiting enzymatic activity of the recombinant 15-PGDH in the assay described above.
With `C[C@H](O)c1cc2c(C3CC3)cc(-c3cnc4nn(C)cc4c3)nc2s1` (single isomer, unassigned) [Compound B11S], the IC50 turned out to be 0.0981 µM. `CC[C@H](O)c1cc2c(C3CC3)cc(-c3cnc4nn(C)cc4c3)nc2s1` (single isomer, unassigned) [Compound B13S]: the IC50 amounted to 0.0236 µM. The figure for `CC(C)[C@H](O)c1cc2ccc(-c3cnc4nn(C)cc4c3)nc2s1` (single isomer, unassigned) [Compound B24S] is 0.0159 µM; for `Cn1cc2cc(-c3ccc4cc([C@@H](O)C5CCC(F)(F)CC5)sc4n3)cnc2n1` (single isomer, unassigned) [Compound B31S] it is 0.00564 µM. As for `Cn1ncc2cc(-c3ccc4cc([C@@H](O)C5CCOCC5)sc4n3)ccc21` (single isomer, unassigned) [Compound B34S], the figure is 4.7 µM; as for `Cn1ncc2cc(-c3ccc4cc([C@@H](O)C5CCOCC5)sc4n3)cnc21` (single isomer, unassigned) [Compound B35S], 0.149 µM. The figure for `O[C@H](c1cc2ccc(-c3ccc4[nH]ncc4c3)nc2s1)C1CCOCC1` (single isomer, unassigned) [Compound B37S] is 1.88 µM; for `Cc1cc2[nH]ncc2cc1-c1ccc2cc([C@H](O)C3CCOCC3)sc2n1` (single isomer, unassigned) [Compound B38R] it is 0.093 µM; for `Cc1cc2[nH]ncc2cc1-c1ccc2cc([C@@H](O)C3CCOCC3)sc2n1` (single isomer, unassigned) [Compound B38S] it is 1.01 µM. In the case of `Cn1nc2cc(-c3ccc4cc([C@@H](O)C5CCOCC5)sc4n3)cnc2n1` (single isomer, unassigned) [Compound B39S], the IC50 stood at 0.184 µM.

For `Cc1n[nH]c2ccc(-c3ccc4cc([C@H](O)C5CCOCC5)sc4n3)cc12` (single isomer, unassigned) [Compound B40R], the IC50 turned out to be 0.00716 µM. As for `Cc1n[nH]c2ccc(-c3ccc4cc([C@@H](O)C5CCOCC5)sc4n3)cc12` (single isomer, unassigned) [Compound B40S], the figure is 3.4 µM; as for `Cn1nnc2cc(-c3ccc4cc([C@@H](O)C5CCOCC5)sc4n3)cnc21` (single isomer, unassigned) [Compound B41S], 0.151 µM; as for `O[C@H](c1cc2ccc(-c3ccc4oncc4c3)nc2s1)C1CCOCC1` (single isomer, unassigned) [Compound B43S], 0.626 µM. As for `O[C@H](c1cc2ccc(-c3cnc4[nH]nnc4c3)nc2s1)C1CCOCC1` (single isomer, unassigned) [Compound B44S], the figure is 0.133 µM; as for `Cc1cn2cc(-c3ccc4cc([C@@H](O)C5CC(F)(F)C5)sc4n3)ccc2n1` (single isomer, unassigned) [Compound B48S], 0.0118 µM. `Cn1cnc(-c2ccc3cc([C@@H](O)C4CC(F)(F)C4)sc3n2)cc1=O` (single isomer, unassigned) [Compound B49S]: the IC50 was 0.0093 µM. Consider `Cc1nc2ccc(-c3ccc4cc([C@@H](O)C5CC(F)(F)C5)sc4n3)cc2o1` (single isomer, unassigned) [Compound B51S], for which the IC50 came to 0.00658 µM. As for `CCC[C@H](O)c1cc2ccc(-c3cnc4nn(C)cc4c3)cc2s1` (single isomer, unassigned) [Compound B54S], the figure is 0.757 µM; as for `CC(C)n1cc2cc(-c3ccc4cc([C@@H](O)C5CC(F)(F)C5)sc4n3)ccc2n1` (single isomer, unassigned) [Compound B56S], 0.0183 µM.

Regarding `O[C@H](c1cc2ccc(-c3cncnc3)nc2s1)C1CC(F)(F)C1` (single isomer, unassigned) [Compound B57S], the IC50 was found to be 0.0132 µM. Consider `Cn1cc2cc(-c3ccc4cc([C@@H](O)C5CCCC5)sc4c3)cnc2n1` (single isomer, unassigned) [Compound B58S], for which the IC50 is 0.111 µM. As for `COCC[C@H](O)c1cc2ccc(-c3cnc4nn(C)cc4c3)cc2s1` (single isomer, unassigned) [Compound B59S], the figure is 1.1 µM; as for `Cn1cc2cc(-c3ccc4cc([C@@H](O)CCC(F)(F)F)sc4c3)cnc2n1` (single isomer, unassigned) [Compound B60S], 0.308 µM.

For the molecule `CC(C)n1ncc2cc(-c3ccc4cc([C@@H](O)C5CC(F)(F)C5)sc4n3)cnc21` (single isomer, unassigned) [Compound B65S], the IC50 is 0.0231 µM. The figure for `[2H][C@@](O)(c1cc2ccc(-c3cnc4nn(C)cc4c3)nc2s1)C1CCOCC1` (single isomer, unassigned) [Compound B66S] is 0.155 µM; for `Cn1cc2cc(-c3ccc4cc([C@@H](CO)C5CC(F)(F)C5)sc4n3)cnc2n1` (single isomer, unassigned) [Compound B80R] it is 0.0467 µM.

As to `C[C@@H]1CC[C@@]1(O)c1cc2ccc(-c3cnc4nn(C)cc4c3)nc2s1` (single isomer, unassigned) [Compound C64SR], the IC50 stood at 0.466 µM. As for `Cn1cc2cc(-c3ccc4cc([C@]5(O)CCC5(C)C)sc4n3)cnc2n1` (single isomer, unassigned) [Compound C65S], the figure is 1.99 µM; as for `Cn1cc2cc(-c3ccc4cc(CO)sc4n3)cnc2n1` [Compound A1, (6-(2-methyl-2H-pyrazolo[3,4-b]pyridin-5-yl)thieno[2,3-b]pyridin-2-yl)methanol], 0.159 µM; as for `CN(C)c1c(CO)c(-c2cnc3nn(C)cc3c2)nc2sc(CO)cc12` [Compound A2, (4-(dimethylamino)-6-(2-methyl-2H-pyrazolo[3,4-b]pyridin-5-yl)thieno[2,3-b]pyridine-2,5-diyl)dimethanol], 2.16 µM. The figure for `COCc1cc2c(C3CCC3)cc(-c3cnc4nn(C)cc4c3)nc2s1` [Compound A3, 5-(4-cyclobutyl-2-(methoxymethyl)thieno[2,3-b]pyridin-6-yl)-2-methyl-2H-pyrazolo[3,4-b]pyridine] is 0.671 µM; for `COCc1cc2c(C3(COC)CCC3)cc(-c3cnc4nn(C)cc4c3)nc2s1` [Compound A4, 5-(2-(methoxymethyl)-4-(1-(methoxymethyl)cyclobutyl)thieno[2,3-b]pyridin-6-yl)-2-methyl-2H-pyrazolo[3,4-b]pyridine] it is above 100 µM. The figure for `Cn1nccc1-c1cc(-c2ccnn2C)c2cc(C(O)C3CCC3)sc2n1` (stereo not shown) [Compound B1, (4,6-bis(1-methyl-1H-pyrazol-5-yl)thieno[2,3-b]pyridin-2-yl)(cyclobutyl)methanol] is 0.0586 µM; for `Cn1cc2cc(-c3cc(-c4ccnn4C)nc4sc(C(O)C5CCC5)cc34)cnc2n1` (stereo not shown) [Compound B3, cyclobutyl(4-(2-methyl-2H-pyrazolo[3,4-b]pyridin-5-yl)-6-(1-methyl-1H-pyrazol-5-yl)thieno[2,3-b]pyridin-2-yl)methanol] it is 0.0643 µM; for `COC(c1cc2c(-c3ccnn3C)cc(-c3cnc4nn(C)cc4c3)nc2s1)C1CCC1` (stereo not shown) [Compound B4] it is 0.0397 µM. As for `CC(O)c1cc2c(-c3cnc4nn(C)cc4c3)cc(-c3ccnn3C)nc2s1` (stereo not shown) [Compound B5, 1-(4-(2-methyl-2H-pyrazolo[3,4-b]pyridin-5-yl)-6-(1-methyl-1H-pyrazol-5-yl)thieno[2,3-b]pyridin-2-yl)ethanol], the IC50 came out at 0.0784 µM. The figure for `Cn1cc2cc(-c3cc(C4CC4)nc4sc(C(O)C5CCC5)cc34)cnc2n1` (stereo not shown) [Compound B7, cyclobutyl(6-cyclopropyl-4-(2-methyl-2H-pyrazolo[3,4-b]pyridin-5-yl)thieno[2,3-b]pyridin-2-yl)methanol] is 0.0149 µM; for `CC(O)c1cc2c(-c3ccnn3C)cc(-c3ccnn3C)nc2s1` (stereo not shown) [Compound B9, 1-(4,6-bis(1-methyl-1H-pyrazol-5-yl)thieno[2,3-b]pyridin-2-yl)ethanol] it is 17.7 µM. As for `CC(O)c1cc2c(-c3cnc4nn(C)cc4c3)cc(-c3cnc4nn(C)cc4c3)nc2s1` (stereo not shown) [Compound B10, 1-(4,6-bis(2-methyl-2H-pyrazolo[3,4-b]pyridin-5-yl)thieno[2,3-b]pyridin-2-yl)ethanol], the figure is 0.139 µM; as for `CC(O)c1cc2c(-c3cnc4nn(C)cc4c3)cc(C3CC3)nc2s1` (stereo not shown) [Compound B12, 1-(6-cyclopropyl-4-(2-methyl-2H-pyrazolo[3,4-b]pyridin-5-yl)thieno[2,3-b]pyridin-2-yl)ethanol], 0.0578 µM; as for `CN1CCC(C(O)c2cc3ccc(-c4cnc5nn(C)cc5c4)nc3s2)CC1` (stereo not shown) [Compound B33, (1-methyl-4-piperidinyl)(6-(2-methyl-2H-pyrazolo[3,4-b]pyridin-5-yl)thieno[2,3-b]pyridin-2-yl)methanol], 0.027 µM. As for `Cn1ncc2cc(-c3ccc4cc(C(O)C5CCOCC5)sc4n3)ccc21` (stereo not shown) [Compound B34, (6-(1-methyl-1H-indazol-5-yl)thieno[2,3-b]pyridin-2-yl)(tetrahydro-2H-pyran-4-yl)methanol], the figure is 0.0207 µM.
